Measurements from patent publication US20190255146A1, “POLYPEPTIDES FOR IMPROVED RESPONSE TO ANTI-CANCER THERAPY” (MUSC FOUNDATION FOR RESEARCH DEVELOPMENT, priority 2016, published 2019).

How the values were obtained:
[1] = tested on: UM-SCC-22A-derived xenograft tumors; assay: HPV(−) UM-SCC-22A-derived xenograft tumor growth in SCID mice; assay type: in vivo; conditions: UM-SCC-22A xenografts, 3.76 μg peptide, absence/presence of cisplatin 3.5 mg/kg every 3 days for 2 weeks
Description: To determine whether HPV(+) compared to HPV(−) HNSCC cells are more sensitive to stress-mediated growth inhibition in response to chemotherapeutic drugs, it was first established HPV(+) UM-SCC-47- and HPV(−) UM-SCC-22A-derived xenograft tumors in SCID mice. After the xenograft-derived tumors were ˜75-100 mm^3, the mice were treated with cisplatin (3.5 mg/kg) for two weeks, which is below its maximum tolerated doses (van Moorsel et al, 1999). Then, tumor volumes were measured at days 0 and 14 of treatment. […] After tumor growth measurements in the mice were taken, the tumors were surgically removed and the effects of cisplatin on CerS1-6 mRNA were measured by qRT-PCR.
Eight arginine residues (R8) were included on the N-terminus to enhance cell penetration of the E2F5 peptide (Rancher and Ryu, 2015).
(§1) In vivo studies. Severe combined immunodeficient (SCID) mice were purchased from Jackson Laboratories. Age- and sex-matched mice were used. All animal protocols were approved by the Institutional Animal Care and Use Committee at the Medical University of South Carolina. UM-SCC22A or UM-SCC47 cells (75,000) were implanted into the flanks of SCID mice (n=5-8 mice). When the tumors were palpable, the mice were treated every three days with 3.5 mg/kg cisplatin, 20 mg/kg C18-pyr-cer, or corresponding amount of vehicle control and/or 3.76 μg E2F5-peptide or scrambled control peptide. Tumor volume was measured using calipers. At the end of the 14-day treatment, the mice were euthanized and tumor tissues were collected (Sentelle et al, 2007; Saddoughi et al, 2013).

[2] = tested on: UM-SCC-22A cells
Description: Trypan blue exclusion assay. Cells were seeded in 6-well plates, and allowed to adhere for 20 h. After treatments (for 24 h), medium containing dead cells was pelleted with trypsinized cells, then re-suspended in 1× PBS then counted in a hemocytometer after addition of trypan blue dye (Sigma-Aldrich) at a 1:10 dilution.

[3] = tested on: UM-SCC-22A cells; assay: Mitophagy in UM-SCC-22A cells (live cell imaging, colocalization of LTG and MTR); assay type: cell-based
Description: Laser scanning confocal microscopy. For live cell imaging, cultured cells were incubated with 500 nM of mitotracker […] and 500 nM lysotracker green in DMSO for 30 min at 37° C. […] An Olympus FV10i confocal microscope was used for imaging. 543- and 488-nm channels were used for visualizing red or green fluorescence, respectively, with pinholes set to 1.0 Airy units. At least three random fields were imaged for each sample ([…] et al, 2012).

[4] = target: T1, Drp1 (Homo sapiens, UniProt O00429); assay: Drp1 recruitment to mitochondria in HPV(−) UM-SCC-22A cells (Western blotting of mitochondria-enriched fractions); assay type: cell-based; conditions: 5 uM peptide, 20 uM C18-pyr-cer, 1.5 hours
T1 construct: Western blotting using whole cell (UM-SCC-22A) lysates versus mitochondria-enriched fractions; endogenous in cells; host or cells: UM-SCC-22A
T1 sequence (O00429 whole entry): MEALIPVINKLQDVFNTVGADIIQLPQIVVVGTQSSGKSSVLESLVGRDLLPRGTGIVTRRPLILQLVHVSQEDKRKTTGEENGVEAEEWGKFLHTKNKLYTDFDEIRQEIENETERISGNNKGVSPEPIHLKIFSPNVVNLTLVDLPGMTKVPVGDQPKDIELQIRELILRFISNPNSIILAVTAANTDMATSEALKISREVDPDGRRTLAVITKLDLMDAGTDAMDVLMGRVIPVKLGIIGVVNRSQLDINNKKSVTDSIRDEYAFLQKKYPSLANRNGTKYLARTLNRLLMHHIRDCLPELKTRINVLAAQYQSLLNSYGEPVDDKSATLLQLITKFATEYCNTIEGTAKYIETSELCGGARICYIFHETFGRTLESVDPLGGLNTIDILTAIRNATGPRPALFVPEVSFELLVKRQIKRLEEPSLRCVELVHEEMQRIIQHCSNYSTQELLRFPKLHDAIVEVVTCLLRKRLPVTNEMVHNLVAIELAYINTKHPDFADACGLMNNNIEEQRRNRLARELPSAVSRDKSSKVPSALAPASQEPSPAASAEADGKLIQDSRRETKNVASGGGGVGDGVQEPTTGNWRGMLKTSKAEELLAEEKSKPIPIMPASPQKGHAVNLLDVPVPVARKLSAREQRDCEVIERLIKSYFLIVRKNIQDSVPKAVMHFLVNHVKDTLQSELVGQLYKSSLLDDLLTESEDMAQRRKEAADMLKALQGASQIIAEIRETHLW
Description: (§2) Images were quantified using FIJI.
(§3) Immunoblotting. Cells were lysed in RIPA buffer plus protease inhibitor cocktail on ice for 15 minutes then centrifuged. 30ug of protein from the supernatant were run on Criterion™ TGX™ Precast Gels (Bio-Rad).
Cell fractionation. Cells were treated with 40 uM cisplatin or vehicle for eight hours, 20 uM C18-pyr-cer or vehicle and/or 5 uM scr-pept or E2F5-pept for 1.5 hours. Mitochondria isolation kit (ThermoFisher Scientific) was used as described by the manufacturer.

[5] = tested on: UM-SCC-22A xenograft-derived tumors; conditions: peptide plus cisplatin versus Scr-pept with/without cisplatin
Source text: Data are means±SD from three independent experiments. *p<0.05 as determined by Student's t test. […] Data are means±SD from three independent experiments. *p<0.05 as determined by Student's t test. […] Data are means±SD from three independent experiments. *p<0.05 as determined by Student's t test.
as §1

[6] = target: T2, Drp1-E2F5 complex (Homo sapiens, UniProt O00429); assay: Drp1-E2F5 association by PLA in tumor tissue sections; assay type: in vivo, mice; conditions: peptide plus cisplatin versus Scr-pept with/without cisplatin
T2 construct: from tissue; host or cells: UM-SCC-22A xenograft tumours grown in SCID mice
T2 sequence (O00429 whole entry, one chain of several): as the sequence (O00429 whole entry) above
Description: as §2
(§4) Proximity ligation assay. Proximity ligation assays were performed using Duolink in situ red kit (Sigma) per manufacturer's instructions, then analyzed as described (Panneer-Selvam et al, 2015).
In vivo studies. […] Age- and sex-matched mice were used. […] Tumor volume was measured using calipers.

[7] = tested on: UM-SCC-22A cells; assay: Growth inhibition in culture, IC50 determination by MTT assay; assay type: cell-based; conditions: UM-SCC-22A (HPV−) cells, 48 h; read-out: IC50 (concentration that inhibited growth by 50%)
Description: (§5) IC50 determination by MTT assay. Cells were plated in 96-well plates and allowed to adhere for 20 h, then treated with the indicated concentrations of drug. After 48 h treatment, the MTT assay (ATCC) was performed as described previously (Sentelle et al, 2012).

[8] = tested on: UM-SCC-47 cells; assay: as above; assay type: cell-based
Description: as §5

[9] = tested on: UM-SCC-47 cells; assay: Mitophagy in UM-SCC-47 cells (Sea Horse oxygen consumption rate, TEM); assay type: cell-based
Description: Measurement of cellular respiration using Seahorse XF analyzer. Cells were plated in a Seahorse Biosciences 96-well plate and allowed to adhere for 20 hours. They were then treated with 20 uM C18-pyr-cer or equivalent amount of vehicle (EtOH) for two hours, then oxygen consumption rate was measured using a Seahorse XF96 (Seahorse Biosciences) as described by the manufacturer (Sentelle et al, 2012).
Ultra-structure analysis using transmission electron microscopy.

[10] = tested on: Drp1; assay: Drp1 oligomerization by Western blotting without reducing agents; assay type: cell-based; conditions: HPV(+) UM-SCC47 cells
Description: FIGS. 7A-F. E2F5/Drp1 complex enhances HPV-E7/ceramide-dependent lethal mitophagy. (A) UM-SCC47 cells were treated with cisplatin or C18-pyr-cer and Western blotting was performed with cell lysates in the absence of reducing agents in the lysing buffer to detect monomeric and dimeric Drp1 protein abundance compared to vehicle-treated controls. Actin was used as a loading control. (B-C) Cell death was assessed by trypan blue exclusion assay in UM-SCC47 cells expressing dominant-negative Drp1 mutant (K38A-DRP1) and treated with C18-pyr-cer (B) or cisplatin (C) compared to vector-transfected controls. […] (D-E) Association between E2F5 and Drp1 in response to ceramide stress (C18-pyr-cer) was measured in UM-SCC-47 cells using PLA (D) or immunoprecipitation followed by Western blotting (E) with anti-Drp1 or anti-E2F5 antibodies. IgG was used as a control. […] PLA signals were quantified as described by the manufacturer using the PLA quantification software. […] Effects of siRNA-mediated HPV-E6/E7 knockdown on pRB, HPV-E7 and p53 protein abundance were also confirmed by Western blotting compared to Scr-siRNA-transfected controls in the absence/presence of C18-pyr-cer (right panel). Total RB was used a loading control (Rb band, upper panel).
Immunoblotting. Cells were lysed in RIPA buffer plus protease inhibitor cocktail on ice for 15 minutes then centrifuged. […]

[11] = tested on: Drp1-E2F5 complex; assay: Drp1-E2F5 association in UM-SCC-47 cells (PLA, co-immunoprecipitation); assay type: cell-based
Description: as §4
Co-immunoprecipitation. Cells were lysed in 500 ul Pierce™ IP lysis/wash buffer (ThermoFisher) with protease inhibitor cocktail (Sigma) on ice for 15 minutes. 350 μg of protein were used with SureBeads™ Protein A Magnetic Beads (BioRad) per manufacturer's instructions, using 10 μg antibody or corresponding normal IgG control (SCBT).

[12] = tested on: Drp1-MFF association; assay: Drp1-MFF association by PLA in UM-SCC47 cells; assay type: cell-based
Description: (§6) FIGS. 9A-D. E2F5 enhances Drp1 translocation to mitochondria and association with MFF to induce HPV-E7/ceramide-dependent mitophagy. (A) Effects of stable knockdown of E2F5 using shRNA on DRP1-MFF association with/without C18-pyr-cer were measured by PLA using anti-DRP1 and anti-MFF antibodies compared to Scr-shRNA-transfected UM-SCC-47 controls. […] (B) HPV(−) UM-SCC1A cells transiently transfected with exogenous E2F5 or empty vector (vec) were used to measure the association between Drp1 and MFF in the absence/presence of ceramide stress by PLA using anti-DRP1 and anti-MFF antibodies. […] (C) Effects of shRNA-mediated E2F5 knockdown on Drp1 localization to mitochondria in the absence/presence of C18-pyr-cer were assessed in whole cell lysates (UM-SCC-47) versus mitochondria-enriched fractions using Western blotting. (D) Effects of transient reconstitution of E2F5^WT or E2F5^Δ84-177 proteins in UM-SCC47 cells, which were stably transfected with E2F5-shRNA, on Drp1 abundance, were measured by Western blotting using anti-Drp1 antibody, in whole cell lysates versus mitochondria-enriched fractions.
as §4

[13] = tested on: Drp1; assay: Drp1 recruitment to mitochondria in HPV(+) UM-SCC-47 cells (Western blotting of mitochondria-enriched fractions); assay type: cell-based
Description: as §6, §3
Cell fractionation. […]

Substance	tumor growth [1]	C18-pyr-cer-induced cell death ([2]; peptide plus C18-pyr-cer, compared to scr-pept)	cisplatin-induced cell death ([2]; peptide plus cisplatin, compared to scr-pept)	peptide-enhanced cell death under shRNA-mediated Drp1 knockdown ([2]; with/without C18-pyr-cer)	C18-pyr-cer-induced mitophagy (colocalization of LTG and MTR) ([3]; peptide plus C18-pyr-cer)	ceramide-induced Drp1 recruitment to mitochondria [4]	mitophagy in tumors (TEM) [5]	co-localization of Drp1 and E2F5 in tumors (PLA) [6]	IC50 [7]	IC50 ([8]; UM-SCC-47 (HPV+) cells, 48 h, read-out: IC50 (concentration that inhibited growth by 50%))	sensitivity for drug-induced growth inhibition/cell death, UM-SCC-47 compared to UM-SCC-22A cells ([8]; cells in culture)	number of mitochondria and autophagosomes by TEM ([9]; HPV(+) UM-SCC-47 compared to HPV(−) UM-SCC-22A cells)	mitophagy detected by decreased oxygen consumption rate ([9]; UM-SCC-47 cells, Sea Horse, versus vehicle)	Drp1 oligomerization and/or activation [10]	Drp1-E2F5 association by PLA ([11]; versus controls)	Drp1-E2F5 association by co-immunoprecipitation ([11]; versus vehicle control)	Drp1-MFF association by PLA [12]	recruitment of Drp1 to mitochondria [13]	lethal mitophagy in HPV(−) cells ([3]; 5-10 μM, 24-48 h)
Biotin-RRRRRRRR-ELDQQKLWLQQSIKNVMDDSINNRFSYVTHED [E2F5-pept]	almost completely inhibited tumor growth	largely increased	largely increased	attenuated	enhanced C18-pyr-cer-induced mitophagy	enhanced ceramide-induced Drp1 recruitment to mitochondria	increased mitophagy	increased	–	–	–	–	–	–	–	–	–	–	–
C18-pyridinium-ceramide [C18-pyr-cer]	–	–	–	–	–	–	–	–	5 µM	1.6 µM	~3 fold	a decreased number mitochondria and an increased number of autophagosomes	increased mitophagy	Drp1 oligomerization and/or activation was observed	increased Drp1-E2F5 association	increased association between Drp1 and E2F5	induced Drp1-MFF association	induced recruitment of Drp1 to mitochondria	induces lethal mitophagy
